Test results: ChEMBL document CHEMBL4616620, “Discovery and SAR of aryl hydroxy pyrimidinones as potent small molecule agonists of the GPCR APJ” (Bioorg Med Chem Lett, 2020)
Several values for one entry are separate records, joined by “and”; a condition that tells them apart may be missing. Identical values can stand only once.

Columns and labels:
Apelin receptor = target: T1, Apelin receptor (Homo sapiens, UniProt P35414); assay: Agonist activity at human APJ expressed in HEK293 cells assessed as inhibition of forskolin-stimulated cAMP production; assay type: functional, cell-based
T1 sequence (P35414 whole entry): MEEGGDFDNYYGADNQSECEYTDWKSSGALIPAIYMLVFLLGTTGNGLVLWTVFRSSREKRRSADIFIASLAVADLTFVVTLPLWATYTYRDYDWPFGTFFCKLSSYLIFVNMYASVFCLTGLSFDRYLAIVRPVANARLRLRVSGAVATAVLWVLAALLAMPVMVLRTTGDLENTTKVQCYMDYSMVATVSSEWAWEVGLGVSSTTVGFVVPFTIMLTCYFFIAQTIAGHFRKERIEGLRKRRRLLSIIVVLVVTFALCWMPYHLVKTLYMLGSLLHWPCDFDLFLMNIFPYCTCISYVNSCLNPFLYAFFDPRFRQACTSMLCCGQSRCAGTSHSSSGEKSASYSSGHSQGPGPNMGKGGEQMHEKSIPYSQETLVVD

[1] = target: CYP450 (isoform not stated) (Homo sapiens, UniProt P04798+P05177+P05181+P08684+P10632+P10635+P11509+P11712+P13584+P20813+P20815+P20853+P24462+P24903+P33260+P33261+P51589+P78329+P98187+Q02928+Q08477+Q16678+Q16696+Q5TCH4+Q6VVX0+Q7Z449+Q8TAV3+Q96SQ9+Q9HB55); assay: Inhibition of CYP450 (unknown origin); assay type: ADME, protein assay
[2] = Permeability of compound at pH 5.5 by PAMPA assay; assay type: ADME; conditions: read-out: permeability
[3] = Permeability of compound at pH 7.4 by PAMPA assay; assay type: ADME; conditions: read-out: permeability
[4] = target: T2, Nuclear receptor subfamily 1 group I member 2 (Homo sapiens, UniProt O75469); assay: Agonist activity at PXR (unknown origin)
T2 sequence (O75469 whole entry): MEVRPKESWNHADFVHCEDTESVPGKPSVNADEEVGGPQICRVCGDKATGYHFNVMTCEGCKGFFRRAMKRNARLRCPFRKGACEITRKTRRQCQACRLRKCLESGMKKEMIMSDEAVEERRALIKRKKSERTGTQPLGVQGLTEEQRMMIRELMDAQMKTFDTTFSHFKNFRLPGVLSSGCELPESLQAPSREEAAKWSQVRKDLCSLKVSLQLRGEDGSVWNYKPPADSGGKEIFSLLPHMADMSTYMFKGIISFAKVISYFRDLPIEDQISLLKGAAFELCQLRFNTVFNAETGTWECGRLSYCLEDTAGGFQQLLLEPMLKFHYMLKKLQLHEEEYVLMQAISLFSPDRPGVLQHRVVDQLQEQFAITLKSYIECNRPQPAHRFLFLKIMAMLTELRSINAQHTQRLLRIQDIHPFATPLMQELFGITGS

[5] = target: Voltage-gated inwardly rectifying potassium channel KCNH2 (Homo sapiens, UniProt Q12809); assay: Inhibition of human ERG
[6] = Cmax in mouse at 10 mg/kg, po; assay type: ADME, organism-based; parameters: dose 10 mg/kg, route oral; conditions: in vivo
[7] = Tmax in mouse at 10 mg/kg, po; assay type: ADME, organism-based; conditions: in vivo
[8] = AUC in mouse at 10 mg/kg, po; assay type: ADME, organism-based; conditions: in vivo
[9] = target: T3, Apelin receptor (Homo sapiens) (UniProt P35414); assay: Agonist activity at human APJ expressed in HEK293 cells assessed as inhibition of forskolin-stimulated cAMP production at 10 uM relative to control; assay type: functional, cell-based
T3 sequence (whole entry): T1 sequence (P35414 whole entry)

Chain of Voltage-gated inwardly rectifying potassium channel KCNH2 (Q12809 whole entry): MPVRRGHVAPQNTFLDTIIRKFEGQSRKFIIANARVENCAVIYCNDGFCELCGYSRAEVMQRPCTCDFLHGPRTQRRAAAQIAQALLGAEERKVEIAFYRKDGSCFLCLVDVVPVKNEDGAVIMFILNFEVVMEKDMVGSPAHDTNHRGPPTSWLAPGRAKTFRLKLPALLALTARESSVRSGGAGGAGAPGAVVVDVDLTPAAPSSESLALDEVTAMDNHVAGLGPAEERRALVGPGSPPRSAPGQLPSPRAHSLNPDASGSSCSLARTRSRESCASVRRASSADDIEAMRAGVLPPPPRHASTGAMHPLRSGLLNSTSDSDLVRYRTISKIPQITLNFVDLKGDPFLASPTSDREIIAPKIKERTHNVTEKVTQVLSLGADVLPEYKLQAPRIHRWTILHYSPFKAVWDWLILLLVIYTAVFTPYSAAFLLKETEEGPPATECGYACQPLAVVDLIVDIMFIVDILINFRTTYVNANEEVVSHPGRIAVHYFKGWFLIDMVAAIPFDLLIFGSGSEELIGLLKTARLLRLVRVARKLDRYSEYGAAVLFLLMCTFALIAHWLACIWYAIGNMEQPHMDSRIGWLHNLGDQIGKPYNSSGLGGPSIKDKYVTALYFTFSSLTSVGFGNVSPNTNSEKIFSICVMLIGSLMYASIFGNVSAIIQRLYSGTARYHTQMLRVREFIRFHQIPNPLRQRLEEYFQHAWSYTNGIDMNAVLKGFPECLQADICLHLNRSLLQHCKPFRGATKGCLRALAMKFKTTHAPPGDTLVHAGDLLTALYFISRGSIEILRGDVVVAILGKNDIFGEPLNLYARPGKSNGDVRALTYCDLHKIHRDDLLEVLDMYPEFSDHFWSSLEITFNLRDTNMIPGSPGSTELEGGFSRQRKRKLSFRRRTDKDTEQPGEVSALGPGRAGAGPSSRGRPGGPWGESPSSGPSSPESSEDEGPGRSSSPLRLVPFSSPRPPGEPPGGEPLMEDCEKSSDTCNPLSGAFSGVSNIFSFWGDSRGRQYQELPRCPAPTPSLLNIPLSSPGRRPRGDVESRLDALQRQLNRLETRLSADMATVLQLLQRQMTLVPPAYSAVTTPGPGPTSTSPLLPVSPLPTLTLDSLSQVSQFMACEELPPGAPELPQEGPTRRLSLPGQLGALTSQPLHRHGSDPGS

| SMILES | EC50 (Apelin receptor) | also measured |
| --- | --- | --- |
| CCCSc1nc(=O)c(CC)c(O)n1-c1ccccc1OC | 0.86 µM | – |
| CCCSc1nc(=O)cc(O)n1-c1ccc(OC)cc1 | 0.68 µM | – |
| CCCSc1nc(=O)cc(O)n1-c1ccccc1OC | 0.064 µM and 0.04 µM and 0.16 µM | IC50 [1]: > 20 µM; Papp [2]: 23 ×10⁻⁶ cm/s; Papp [3]: 13.1 ×10⁻⁶ cm/s; EC50 [4]: > 50 µM; IC50 [5]: > 80 µM; Cmax [6]: 4.4 µM; Tmax [7]: 4 h; AUC [8]: 29 µM·h |
| CCCSc1nc(=O)cc(O)n1-c1ccccc1Br | 0.155 µM | – |
| CCCCc1nc(=O)cc(O)n1-c1ccccc1OC | 0.022 µM and 0.024 µM and 0.031 µM | – |
| CCCSc1nc(=O)cc(O)n1-c1ccccc1CC | 0.14 µM | – |
| CCCSc1nc(=O)c(C)c(O)n1-c1ccccc1OC | 1.4 µM | – |
| COc1ccccc1-n1c(O)cc(=O)nc1SCC(C)C | 0.078 µM | – |
| C=CCn1c(O)cc(=O)nc1SC(C)CC (stereo not given) | 4.4 µM | Efficacy [9]: 100% |
| CCCSc1nc(=O)cc(O)n1-c1ccccc1OCC | 0.1 µM | – |
| CCCSc1nc(=O)cc(O)n1-c1ccccc1C | 0.1 µM | – |

Second part, led by results:

| EC50 (Apelin receptor) | SMILES | also measured |
| --- | --- | --- |
| 0.94 µM | CCCSc1nc(=O)cc(O)n1-c1cccc(OC)c1 | – |
| 0.005 µM and 0.003 µM and 0.002 µM | CCCCc1nc(=O)cc(O)n1-c1c(C)cccc1OC | IC50 [1]: > 20 µM; Papp [2]: 1.2 ×10⁻⁶ cm/s; Papp [3]: 1 ×10⁻⁶ cm/s; EC50 [4]: > 14 µM; IC50 [5]: > 80 µM; Cmax [6]: 1.68 µM; Tmax [7]: 4 h; AUC [8]: 10.2 µM·h |
| 1.7 µM | CCCCc1c(O)n(-c2ccccc2OC)c(SCCC)nc1=O | – |
| 0.023 µM | COc1ccccc1-n1c(O)cc(=O)nc1SC(C)C | – |
| 0.29 µM | CCCSc1nc(=O)cc(O)n1-c1cccc(C)c1 | – |
| 0.25 µM | CCCSc1nc(=O)cc(O)n1-c1ccccc1Cl | – |
| 5 µM | CCCSc1nc(=O)cc(O)n1-c1ccccc1 | Efficacy [9]: 100% |
| 0.011 µM | CCCCc1nc(=O)cc(O)n1-c1c(OC)cccc1OC | – |
| 0.09 µM | CCCSc1nc(=O)cc(O)n1-c1ccccc1C(F)(F)F | – |
| 0.013 µM | CCCCc1nc(=O)c(Cc2ccc(OC)cc2)c(O)n1-c1c(OC)cccc1OC | – |
| 0.16 µM | CCCSc1nc(=O)cc(O)n1-c1ccccc1F | – |
| 0.2 µM | CCCCSc1nc(=O)cc(O)n1-c1ccccc1OC | – |
| 0.26 µM | CCCSc1nc(=O)cc(O)n1-c1ccc(C)cc1 | – |
| 0.34 µM | CCCSc1nc(=O)c(Cc2ccccc2)c(O)n1-c1ccccc1OC | – |
| 0.57 µM | C=CCc1c(O)n(-c2ccccc2OC)c(SCCC)nc1=O | – |
| 0.45 µM | CCCSc1nc(=O)c(C(C)C)c(O)n1-c1ccccc1OC | – |
